Measured values: patent publication US8546375B2, “(3-(4-(aminomethyl)phenoxy or phenylthio)azetidin-1-yl)(5-phenyl-1,3,4-oxadiazol-2-yl)methanone compounds” (AstraZeneca AB, priority 2010, dated 2013)
Counter-ions that a name gives are not always drawn.

Target: T1, Melanin Concentrating Hormone Receptor 1 (MCHR1) (Homo sapiens, UniProt Q99705)
T1 construct: expressed in transfected cells
Experiment: MCHR1 Receptor Activation Assay (GTPγ^35S)
Format: biochemical
Settings: read-out: GTPγ^35S IC50

T1 sequence (Q99705 whole entry): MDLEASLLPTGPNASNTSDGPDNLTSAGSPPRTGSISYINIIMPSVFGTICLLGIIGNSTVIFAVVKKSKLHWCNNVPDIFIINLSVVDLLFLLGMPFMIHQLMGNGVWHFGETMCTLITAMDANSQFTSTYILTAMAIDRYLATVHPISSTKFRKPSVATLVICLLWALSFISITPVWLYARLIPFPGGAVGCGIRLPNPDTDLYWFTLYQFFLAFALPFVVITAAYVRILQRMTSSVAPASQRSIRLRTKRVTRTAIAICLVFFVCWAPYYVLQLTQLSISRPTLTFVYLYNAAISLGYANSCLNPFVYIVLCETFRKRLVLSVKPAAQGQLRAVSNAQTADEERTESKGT

Compound: CN(C)Cc1ccc(OC2CN(C(=O)c3nnc(-c4ccc(C(F)(F)F)cc4)o3)C2)cc1 [Example 35, (3-(4-((dimethylamino)methyl)phenoxy)azetidin-1-yl)(5-(4-(trifluoromethyl)phenyl)-1,3,4-oxadiazol-2-yl)methanone]
- IC50: 19 nM

Compound: CN(C)Cc1ccc(OC2CN(C(=O)c3nnc(-c4ccc(Cl)cc4)o3)C2)cc1 [Example 36, (5-(4-Chlorophenyl)-1,3,4-oxadiazol-2-yl)(3-(4-((dimethylamino)methyl)phenoxy)azetidin-1-yl)methanone]
- IC50: 13 nM

Compound: CN(C)Cc1ccc(OC2CN(C(=O)c3nnc(-c4ccc(OC(F)F)cc4)o3)C2)cc1 [Example 37, (5-(4-(Difluoromethoxy)phenyl)-1,3,4-oxadiazol-2-yl)(3-(4-((dimethylamino)methyl)phenoxy)azetidin-1-yl)methanone]
- IC50: 17 nM

Compound: COc1ccc(-c2nnc(C(=O)N3CC(Oc4ccc(CN(C)C)cc4)C3)o2)cc1 [Example 38, (3-(4-((Dimethylamino)methyl)phenoxy)azetidin-1-yl)(5-(4-methoxyphenyl)-1,3,4-oxadiazol-2-yl)methanone]
- IC50: 27 nM

Compound: CN(C)Cc1ccc(OC2CN(C(=O)c3nnc(-c4ccccc4)o3)C2)c(F)c1F [Example 39, (3-(4-((Dimethylamino)methyl)-2,3-difluorophenoxy)azetidin-1-yl)(5-phenyl-1,3,4-oxadiazol-2-yl)methanone]
- IC50: 49 nM

Compound: COc1ccc(-c2nnc(C(=O)N3CC(Oc4ccc(CN(C)C)c(F)c4F)C3)o2)cc1 [Example 40, (3-(4-((Dimethylamino)methyl)-2,3-difluorophenoxy)azetidin-1-yl)(5-(4-methoxyphenyl)-1,3,4-oxadiazol-2-yl)methanone]
- IC50: 27 nM

Compound: COc1ccc(-c2nnc(C(=O)N3CC(Oc4ccc(CN5CCC5)cc4)C3)o2)cc1 [Example 41, (3-(4-(Azetidin-1-ylmethyl)phenoxy)azetidin-1-yl)(5-(4-methoxyphenyl)-1,3,4-oxadiazol-2-yl)methanone]
- IC50: 25 nM

Compound: O=C(c1nnc(-c2ccccc2)o1)N1CC(Oc2ccc(CN3CCC3)cc2)C1 [Example 42, (3-(4-(azetidin-1-ylmethyl)phenoxy)azetidin-1-yl)(5-phenyl-1,3,4-oxadiazol-2-yl)methanone]
- IC50: 26 nM

Compound: Cc1cc(OC2CN(C(=O)c3nnc(-c4ccc(OC(F)F)cc4)o3)C2)ccc1CN(C)C [Example 43, (5-(4-(Difluoromethoxy)phenyl)-1,3,4-oxadiazol-2-yl)(3-(4-((dimethylamino)methyl)-3-methylphenoxy)azetidin-1-yl)methanone]
- IC50: 11 nM

Compound: Cc1cc(OC2CN(C(=O)c3nnc(-c4ccc(Cl)cc4)o3)C2)ccc1CN(C)C [Example 44, (5-(4-Chlorophenyl)-1,3,4-oxadiazol-2-yl)(3-(4-((dimethylamino)methyl)-3-methylphenoxy)azetidin-1-yl)methanone]
- IC50: 10 nM

Compound: O=C(c1nnc(-c2ccccc2)o1)N1CC(Oc2ccc(CN3CCCC3)c(C(F)(F)F)c2)C1 [Example 45, (5-Phenyl-1,3,4-oxadiazol-2-yl)(3-(4-(pyrrolidin-1-ylmethyl)-3-(trifluoromethyl)phenoxy)azetidin-1-yl)methanone]
- IC50: 16 nM

Compound: COc1ccc(-c2nnc(C(=O)N3CC(Oc4ccc(CN5CCCC5)c(C(F)(F)F)c4)C3)o2)cc1 [Example 46, (5-(4-Methoxyphenyl)-1,3,4-oxadiazol-2-yl)(3-(4-(pyrrolidin-1-ylmethyl)-3-(trifluoromethyl)phenoxy)azetidin-1-yl)methanone]
- IC50: 18 nM

Compound: COc1ccc(-c2nnc(C(=O)N3CC(Oc4ccc(CN(C)C)c(Cl)c4)C3)o2)cc1 [Example 47, (3-(3-Chloro-4-((dimethylamino)methyl)phenoxy)azetidin-1-yl)(5-(4-methoxyphenyl)-1,3,4-oxadiazol-2-yl)methanone]
- IC50: 19 nM

Compound: CN(C)Cc1ccc(OC2CN(C(=O)c3nnc(-c4ccccc4)o3)C2)cc1Cl [Example 48, (3-(3-Chloro-4-((dimethylamino)methyl)phenoxy)azetidin-1-yl)(5-phenyl-1,3,4-oxadiazol-2-yl)methanone]
- IC50: 18 nM

Compound: COc1ccc(-c2nnc(C(=O)N3CC(Oc4ccc(CN5CCN(C)CC5)c(Cl)c4)C3)o2)cc1 [Example 49, (3-(3-Chloro-4-((4-methylpiperazin-1-yl)methyl)phenoxy)azetidin-1-yl)(5-(4-methoxyphenyl)-1,3,4-oxadiazol-2-yl)methanone]
- IC50: 37 nM

Compound: CN1CCN(Cc2ccc(OC3CN(C(=O)c4nnc(-c5ccccc5)o4)C3)cc2Cl)CC1 [Example 50, (3-(3-Chloro-4-((4-methylpiperazin-1-yl)methyl)phenoxy)azetidin-1-yl)(5-phenyl-1,3,4-oxadiazol-2-yl)methanone]
- IC50: 35 nM

Compound: CN(C)Cc1ccc(OC2CN(C(=O)c3nnc(-c4ccc(OC(F)F)cc4)o3)C2)cc1F [Example 51, (5-(4-(Difluoromethoxy)phenyl)-1,3,4-oxadiazol-2-yl)(3-(4-((dimethylamino)methyl)-3-fluorophenoxy)azetidin-1-yl)methanone]
- IC50: 19 nM

Compound: COc1ccc(-c2nnc(C(=O)N3CC(Oc4ccc(CN5CCCC5)c(OC)c4C)C3)o2)cc1 [Example 52, (3-(3-Methoxy-2-methyl-4-(pyrrolidin-1-ylmethyl)phenoxy)azetidin-1-yl)(5-(4-methoxyphenyl)-1,3,4-oxadiazol-2-yl)methanone]
- IC50: 24 nM

Compound: CNCc1ccc(OC2CN(C(=O)c3nnc(-c4ccccc4)o3)C2)cc1C [Example 53, (3-(3-Methyl-4-((methylamino)methyl)phenoxy)azetidin-1-yl)(5-phenyl-1,3,4-oxadiazol-2-yl)methanone]
- IC50: 28 nM

Compound: CNCc1ccc(OC2CN(C(=O)c3nnc(-c4ccc(OC)cc4)o3)C2)c(C)c1 [Example 54, (5-(4-Methoxyphenyl)-1,3,4-oxadiazol-2-yl)(3-(2-methyl-4-((methylamino)methyl)phenoxy)azetidin-1-yl)methanone]
- IC50: 31 nM

Compound: COc1ccc(-c2nnc(C(=O)N3CC(Oc4ccc(CN5CC(OC)C5)cc4)C3)o2)cc1 [Example 55, (3-(4-((3-Methoxyazetidin-1-yl)methyl)phenoxy)azetidin-1-yl)(5-(4-methoxyphenyl)-1,3,4-oxadiazol-2-yl)methanone]
- IC50: 22 nM

Compound: COc1ccc(-c2nnc(C(=O)N3CC(Oc4ccc(CN5CC(O)(C6CC6)C5)cc4)C3)o2)cc1 [Example 56, (3-(4-((3-Cyclopropyl-3-hydroxyazetidin-1-yl)methyl)phenoxy)azetidin-1-yl)(5-(4-methoxyphenyl)-1,3,4-oxadiazol-2-yl)methanone]
- IC50: 13 nM

Compound: COC1CN(Cc2ccc(OC3CN(C(=O)c4nnc(-c5ccccc5)o4)C3)c(Cl)c2)C1 [Example 57, (3-(2-Chloro-4-((3-methoxyazetidin-1-yl)methyl)phenoxy)azetidin-1-yl)(5-phenyl-1,3,4-oxadiazol-2-yl)methanone]
- IC50: 18 nM

Compound: O=C(c1nnc(-c2ccccc2)o1)N1CC(Oc2ccc(CN3CC(O)C3)cc2Cl)C1 [Example 58, (3-(2-Chloro-4-((3-hydroxyazetidin-1-yl)methyl)phenoxy)azetidin-1-yl)(5-phenyl-1,3,4-oxadiazol-2-yl)methanone]
- IC50: 29 nM

Compound: COc1ccc(-c2nnc(C(=O)N3CC(Sc4ccc(CN5CCCC5)cc4)C3)o2)cc1 [Example 59, (5-(4-Methoxyphenyl)-1,3,4-oxadiazol-2-yl)(3-(4-(pyrrolidin-1-ylmethyl)phenylthio)azetidin-1-yl)methanone]
- IC50: 11 nM

Compound: CN(C)Cc1ccc(SC2CN(C(=O)c3nnc(-c4ccccc4)o3)C2)cc1 [Example 60, (3-(4-((Dimethylamino)methyl)phenylthio)azetidin-1-yl)(5-phenyl-1,3,4-oxadiazol-2-yl)methanone]
- IC50: 19 nM

Compound: COCCN(C)Cc1ccc(SC2CN(C(=O)c3nnc(-c4ccccc4)o3)C2)cc1 [Example 61, (3-(4-(((2-Methoxyethyl)(methyl)amino)methyl)phenylthio)azetidin-1-yl)(5-phenyl-1,3,4-oxadiazol-2-yl)methanone hydrochloride]
- IC50: 22 nM

Compound: COC1CN(Cc2ccc(SC3CN(C(=O)c4nnc(-c5ccccc5)o4)C3)cc2)C1 [Example 62, (3-(4-((3-Methoxyazetidin-1-yl)methyl)phenylthio)azetidin-1-yl)(5-phenyl-1,3,4-oxadiazol-2-yl)methanone]
- IC50: 13 nM

Compound: CNCc1ccc(SC2CN(C(=O)c3nnc(-c4ccccc4)o3)C2)cc1 [Example 63, (3-(4-((Methylamino)methyl)phenylthio)azetidin-1-yl)(5-phenyl-1,3,4-oxadiazol-2-yl)methanone hydrochloride]
- IC50: 23 nM

Compound: CN(Cc1ccc(SC2CN(C(=O)c3nnc(-c4ccccc4)o3)C2)cc1)C1CCOCC1 [Example 64]
- IC50: 12 nM

Compound: CN(Cc1ccc(SC2CN(C(=O)c3nnc(-c4ccccc4)o3)C2)cc1)CC1CCOC1 (centres unmarked) [Example 65, (3-(4-((Methyl((tetrahydrofuran-3-yl)methyl)amino)methyl)phenylthio)azetidin-1-yl)(5-phenyl-1,3,4-oxadiazol-2-yl)methanone]
- IC50: 20 nM

Compound: O=C(c1nnc(-c2ccccc2)o1)N1CC(Sc2ccc(CNC3CC3)cc2)C1 [Example 66, (3-(4-((Cyclopropylamino)methyl)phenylthio)azetidin-1-yl)(5-phenyl-1,3,4-oxadiazol-2-yl)methanone]
- IC50: 10 nM

Compound: O=C(c1nnc(-c2ccccc2)o1)N1CC(Sc2ccc(CN3CC(CO)C3)cc2)C1 [Example 67, (3-(4-((3-(Hydroxymethyl)azetidin-1-yl)methyl)phenylthio)azetidin-1-yl)(5-phenyl-1,3,4-oxadiazol-2-yl)methanone]
- IC50: 23 nM

Compound: O=C(c1nnc(-c2ccccc2)o1)N1CC(Oc2ccc(CN3CC(C(F)F)C3)cc2)C1 [Example 68, (3-(4-((3-(Difluoromethyl)azetidin-1-yl)methyl)phenoxy)azetidin-1-yl)(5-phenyl-1,3,4-oxadiazol-2-yl)methanone]
- IC50: 21 nM

Compound: Cc1cc(OC2CN(C(=O)c3nnc(-c4ccccc4)o3)C2)ccc1CN1CCC(C)(CO)CC1 [Example 69]
- IC50: 22 nM
